From patent US20230381142A1, “ANTILEISHMANIAL COMPOUNDS, COMPOSITIONS AND USE THEREOF” (TRUSTEES OF BOSTON UNIVERSITY, priority 2022, published 2023)
Where two headings read alike, the source gives them in different places. Marks after values point to notes of the source that are not given here.

What was measured:
[1] = test system: L. braziliensis (strain BA788) in J774 cells; experiment: J774 luciferase infection assay (Assay Conditions E); assay type: cell-based, Leishmania braziliensis; details: footnote e
Procedure, shortened: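 J774A.1 macrophages infected 24 h with luciferase/GFP-expressing stationary-phase promastigotes (L. major Friedlin or L. braziliensis BA788, 1:10 parasite:cell), washed, then exposed 48 h at 37 °C, 5% CO2 to 8-point 2-fold dilutions. OneTiterGlo bioluminescence read; EC75 calculated.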

[2] = GSK inMac assay, host cell toxicity readout (LD MAC); assay type: cell-based, human; details: human; footnote c; read-out: THP-1 Host Cell CC50
Procedure, shortened: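 Intramacrophage L. donovani assay in THP-1 macrophages; host toxicity taken from host cell number per well, giving MAC EC50. Run alongside amastigote-per-cell and infected-cell readouts in the same wells.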

[3] = UCSD infection assay, host cell cytotoxicity (CC50); assay type: cell-based; details: mouse, B10R host cells infected with L. donovani; footnote d
[4] = test system: L. donovani intracellular amastigotes in B10R cells; experiment: UCSD L. donovani infection assay (Assay Conditions D); assay type: cell-based; details: B10R cells; for L. donovani amastigotes EC75 (B10R cells): footnote d; for EC50: Leishmania donovani, values marked d, read-out: L. donovani amastigotes EC50 (B10R cells)
Procedure, shortened: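 B10R cells (300/well) infected with stationary-phase L. donovani WT promastigotes at 20 parasites/cell in DMEM high-glucose, 5% FBS, with compounds 72 h at 37° C., 5% CO2. Formaldehyde-fixed, DAPI-stained, imaged by high-content microscopy; 10-point 2-fold dilutions (screen at 10 μM) gave EC50 and host CC50.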

[5] = test system: L. donovani intracellular amastigotes infecting THP-1 macrophages; experiment: GSK intramacrophage L. donovani assay (LD AMMAC, inMac; Assay Conditions C); assay type: cell-based; details: Leishmania donovani; THP-1 cells; values marked c; read-out: L. donovani amastigotes EC50 (THP-1 cells)
Procedure, shortened: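 L. donovani amastigotes within THP-1 macrophages; EC50 based on average intracellular amastigotes per infected cell (AMMAC). Infected-cell percentage (INFCELL) and host-cell number (MAC) also read, the latter as toxicity output.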

[6] = test system: L. major (strain Friedlin) in J774 cells; experiment: J774 luciferase infection assay (Assay Conditions E); assay type: cell-based, Leishmania major; details: values marked e
Protocol: Assay Conditions E: J774 cells (ATCC J774A.1 were grown in DMEM supplemented with 10% Fetal Bovine Serum (FBS) and 1% Penicillin-Streptomycin at 37° C. in 5% CO2. Leishmania parasites expressing luciferase and GFP were grown as described in Front. Cell. Infect. Microbiol (2019) 9:237. J774 cells were seeded in microwell plates at 3×10^5 cells/mL density. Cells were washed with PBS and incubated with complete DMEM medium containing stationary phase Leishmania promastigotes (L. major: strain Friedlin; L. braziliensis, strain BA788) at a 1:10 parasite-cell ratio for 24 h. Cells were washed with PBS. Cells and compounds were incubated for 48 h at 37° C. and 5% C02. Compounds were tested in 8-point 2-fold serial dilution in 4 technical replicates, and 2 biological replicates. After 48 h, OneTiterGlo (Promega) (100 μl) was added to each well. Plates were incubated for 15 min and bioluminescence was measured using a plate reader (Molecular Devices). Effective concentration inducing 75% activity (EC75) was calculated using GraphPad Prism Software (version 9.0).

[7] = test system: L. donovani intracellular amastigotes infecting THP-1 cells; experiment: High content intracellular amastigote assay in THP-1 cells (Assay Conditions B; CDIPD screen); assay type: cell-based, Leishmania donovani; details: 10 μM; THP-1 cells; footnote b
Protocol: (§1) Assay Conditions B: THP-1 cells (human acute monocytic leukemia cell line—ATCC TIB202) were grown in RPMI supplemented with 10% Fetal Bovine Serum (FBS) and 50 μM 2-mercaptoethanol at 37° C. in 5% CO2. THP-1 were seeded in microwell plates at 5×10^5 cells/mL density and treated with 0.1 μM phorbol myristate acetate (PMA, Sigma) at 37° C. for 48 h for differentiation into adherent, non-dividing macrophages. After activation by PMA, cells were washed and incubated with complete RPMI medium containing stationary phase Leishmania promastigotes (L. major: strain LV39; L. donovani, strain 1S/Cl2D) at a 1:15 parasite-cell ratio. Compounds were added and incubated at 37° C. for 72 h. Cells were then washed with phosphate-buffered saline (PBS), fixed for 30 minutes with 4% formaldehyde, rinsed again with PBS, stained for 2 h with 4′,6′-diamidino-2-phenylindole (DAPI 300 nM) and finally washed with PBS. In a collaborative effort to identify new antileishmanial chemotypes with minimal host cell cytotoxicity, compounds from the Boston University Center for Molecular Discovery (BUCMD) screening collection were assessed in a phenotypic, high content primary screen at the University of California's Center for Discovery and Innovation in Parasitic Diseases (CDIPD) for the ability to inhibit growth of L. donovani intracellular amastigotes infecting THP-1 cells. […] Dose-response testing in L. donovani (both intracellular amastigotes and promastigotes) confirmed concentration-dependent growth inhibition of both morphologies of the parasite at low micromolar EC50 values for both compounds (Table 1).

[8] = test system: L. major (strain LV39) intracellular amastigotes infecting THP-1 cells; experiment: High content intracellular amastigote assay in THP-1 cells (Assay Conditions B); assay type: cell-based, Leishmania major; details: THP-1 cells; values marked b
Protocol: as §1

THP-1 cells = experiment: Host THP-1 cell cytotoxicity in the CDIPD high content screen; assay type: cell-based, human; details: Homo sapiens, THP-1; 10 μM; footnote b; read-out: THP-1 host cell % growth inhibition at 10 μM
Protocol: as §1

[9] = test system: L. donovani promastigotes (strain 1S/Cl2D); experiment: Promastigote assay, CellTiter-Glo (Assay Conditions F); assay type: cell-based; details: Leishmania donovani; footnote f; read-out: L. donovani promastigotes EC50
Protocol: (§2) Assay Conditions F: Leishmania promastigotes (L. major: strain LV39; L. donovani, strain 1S/Cl2D) were maintained as previously described in PloS Negl Trop Dis (2015) 9(3):e0003588 and Pathogens (2021) 10(5):593) at 28° C. in M199 media supplemented with glutamine, adenosine, folic acid, hemin, HEPES, 10% Fetal Bovine Serum (Sigma-Aldrich, cat. no. F2442) and 1% Penicillin-Streptomycin (Gibco, cat. no. 15140122). For the promastigote assay, we followed the method previously described in PloS Negl Trop Dis (2011) 5(7):e1253. Briefly, promastigotes were incubated with the compounds for 72 h at 27° C., then lysed by adding 50 μL of CellTiter-Glo (Promega) and placed on an orbital shaker for 5 min at room temperature. After lysis, the resulting ATP-bioluminescence was measured using the Analyst HT plate reader (Molecular Devices).

[10] = test system: L. major promastigotes (strain LV39); experiment: as above; assay type: cell-based; details: Leishmania major; footnote f; read-out: L. major promastigotes EC50
Protocol: as §2

[11] = test system: L. braziliensis-infected macrophages; experiment: Macrophage (BMDM) infection with L. braziliensis and exposure to CMLDs; assay type: cell-based, Leishmania braziliensis; details: for percentage of infected macrophages / number of amastigotes per 100 macrophages / EC50: 24 h exposure; for EC50: Leishmania braziliensis, Macrophage, percentage of infected macrophages, read-out: EC50 against L. braziliensis-infected macrophages
Protocol: Leishmania braziliensis (MIHOM/BR/00/BA788) and L. major (Friedlin) promastigotes were maintained in Schneider's medium (SIGMA) supplemented with 10% heat-inactivated FCS, 100 U/ml penicillin, 100 μg/ml streptomycin (all from Invitrogen).
BMDM were obtained as described above. Cells were resuspended in DMEM medium supplemented with 100 U/mL penicillin, […] streptomycin, and 10% heat-inactivated Fetal Bovine Serum (all from Invitrogen) and seeded at a density of 3×10^5 cells per well in 24-well culture plates. Monolayers received 3×10^6 cells L. braziliensis promastigotes and were incubated at 37° C. in supplemented DMEM medium for 24 h. Infected macrophages were then washed to remove non-internalized parasites. Compounds CMLD 011128, CMLD010947, CMLD010498, and CMLD011494 were added at different concentrations. After 24 hours, cells were extensively washed, fixed and stained with hematoxylin and eosin (H&E). The number of infected cells and of intracellular amastigotes were counted by optical microscopy in 200 macrophages. Positive controls consisted of cultures treated with Amphotericin B (0.25 μg/mL, Invitrogen). Cultures were performed in quintuplicate. Alternatively, infected macrophages were treated as described, monolayers were extensively washed and the medium was replaced by 0.5 ml of supplemented Schneider medium. Cells were cultured for seven additional days at 26° C., when number of viable promastigotes was determined using hemocytometer.
Results were expressed as the mean percentage reduction of infected cells compared with untreated control wells. Half-maximal effective concentrations (EC50) were determined by sigmoidal regression curves using Prism 7.0 software (GraphPad Software Inc.)

[12] = test system: L. donovani intracellular amastigotes infecting THP-1 macrophages; details: GlaxoSmithKline Phase I VL candidates; read-out: intramacrophage EC50; cited from earlier work
[13] = test system: L. major-infected murine macrophages; experiment: Macrophage infection with L. major and exposure to CMLDs; assay type: cell-based, Leishmania major; details: for number of intracellular amastigotes / percentage of infected cells: L. major, only observed at the highest dose (1 μM)
[14] = test system: macrophages from bone marrow; experiment: Cellular viability of macrophages (Cell Titer Glo); assay type: cell-based, murine; details: 500-1000 nM, 24 h
Protocol: Briefly, macrophages were obtained from bone marrow and seeded at a density of 1×10^6 cells per well in 24-well culture plates. After 2 hours, cells were treated with compounds at two concentrations (500 and 1000 nm) for 24 hours. Cell viability was determined using Cell Titer Glo (Promega), according to manufacturer's instructions. For positive control, pararosaniline chloride was used.

| Structure (SMILES) | L. braziliensis amastigotes EC75 (J774 cells) [1] [µM] | CC50 [2] [µM] | CC50 at 72 h [3] [µM] | L. donovani amastigotes EC75 (B10R cells) [4] [µM] | EC50 [5] [µM] | L. major amastigotes EC75 (J774 cells) [6] | leishmanicidal effect on L. braziliensis infection in vitro [11] | percentage of infected macrophages ([11]; L. braziliensis) | EC50 [4] [µM] | other results |
| --- | --- | --- | --- | --- | --- | --- | --- | --- | --- | --- |
| CC(C)Cc1n[nH]c2c1C(c1ccc(F)cc1)N(c1ccc3c(c1)OCO3)C2=O (centres unmarked) [CMLD010901] | 8.7 | 25.1 | 12.6 | 0.4 | 0.6 | 6.0^e μM |  |  |  |  |
| COc1ccc(N2C(=O)c3[nH]nc(CC(C)C)c3C2c2ccc(F)cc2)cc1 (centres unmarked) [CMLD007431] |  | > 20 |  | 1.0 | 2.5 |  |  |  |  | L. donovani amastigotes % GI at 10 μM (THP-1 cells) [7]: 99.0%; L. major amastigotes EC75 (THP-1 cells) [8]: 1.3^b μM; inhibition at 10 µM (THP-1 cells): 13%; EC50 [9]: 2 µM; EC50 [10]: 4.4 µM |
| COc1ccc(N2C(=O)c3[nH]nc(CC(C)C)c3[C@@H]2c2ccc(F)cc2)cc1 [CMLD011128] | 7.5 | > 20 |  | 0.5 | 0.8 |  | did not show leishmanicidal effects | did not decrease |  |  |
| COc1ccc(N2C(=O)c3[nH]nc(CC(C)C)c3C2c2ccc(F)cc2)cc1F (centres unmarked) [CMLD010884] | >10 | 25.1 | 20 | 0.8 | 1.3 | 7.2^e μM |  |  |  |  |
| O=C(Nc1ccc(F)c(-c2ccn3c(N4CCOCC4)cnc3n2)c1)N1CCCC1 [GSK3494245] |  |  |  |  |  |  |  |  |  | EC50 [12]: 1.6 µM |
| COc1ccc(N2C(=O)c3[nH]nc(CC(C)C)c3C2c2ccccc2)cc1 (centres unmarked) [CMLD007427] |  | 31.6 |  | 1.1 | 3.2 |  |  |  |  | L. donovani amastigotes % GI at 10 μM (THP-1 cells) [7]: 100.0%; L. major amastigotes EC75 (THP-1 cells) [8]: 1.7^b μM; inhibition at 10 µM (THP-1 cells): 11%; EC50 [9]: 2.4 µM; EC50 [10]: 4.2 µM |
| COc1ccc(N2C(=O)c3[nH]nc(CC(C)C)c3C2c2ccccc2Cl)cc1 (centres unmarked) [CMLD010893] | >10 | 20 | 6.31 | 0.3 | 1.3 | 8.3^e μM |  |  |  |  |
| Cc1cc(F)ccc1C1c2c(CC(C)C)n[nH]c2C(=O)N1c1ccc2ncnn2c1 (centres unmarked) [CMLD010948] | 5.5 | > 20 |  | 1.1 |  |  | reduces L. braziliensis infection | significant decrease | 0.9 | L. major infection in vitro [13]: reduce L. major infection; number of intracellular amastigotes [13]: significant decreased; percentage of infected cells [13]: significant decreased; number of amastigotes per 100 macrophages ([11]; L. braziliensis): significant decrease; EC50 [11]: > 5 µM; cell viability of macrophages [14]: did not change cell viability |
| COc1cc(F)ccc1C1c2c(CC(C)C)n[nH]c2C(=O)N1c1ccc(Br)cc1 (centres unmarked) [CMLD011494] | 5.2 | 4 | 3.98 | 0.1 |  | 2.8^e μM | reduces L. braziliensis infection | significantly reduced | 0.1 | L. major infection in vitro [13]: reduce L. major infection; number of intracellular amastigotes [13]: significant decreased; percentage of infected cells [13]: significant decreased; number of amastigotes per 100 macrophages ([11]; L. braziliensis): significantly reduced; number of viable promastigotes after exposure of infected BMDM ([11]; L. braziliensis, culture in Schneider medium): significantly reduced; EC50 [11]: 1.64 µM; cell viability of macrophages [14]: did not change cell viability |
| Cc1cc(F)ccc1C1c2c(CC(C)C)n[nH]c2C(=O)N1c1ccc(N(C)C)cc1 (centres unmarked) [CMLD011561] | 2.1 | 7.5 | 7.94 | 0.1 |  | 1.9^e μM |  |  | 0.1 |  |
